Assay results taken from ChEMBL document CHEMBL1126935, “N-acyl-L-tryptophan benzyl esters: potent substance P receptor antagonists” (J Med Chem, 1993).

Molecular target: Substance-P receptor (Homo sapiens, UniProt P25103)
Test: Tested against cloned human NK1 receptor by displacement of 125 I -labeled substance P expressed in CHO cells
Assay type: cell-based

Sequence of Substance-P receptor (P25103 whole entry): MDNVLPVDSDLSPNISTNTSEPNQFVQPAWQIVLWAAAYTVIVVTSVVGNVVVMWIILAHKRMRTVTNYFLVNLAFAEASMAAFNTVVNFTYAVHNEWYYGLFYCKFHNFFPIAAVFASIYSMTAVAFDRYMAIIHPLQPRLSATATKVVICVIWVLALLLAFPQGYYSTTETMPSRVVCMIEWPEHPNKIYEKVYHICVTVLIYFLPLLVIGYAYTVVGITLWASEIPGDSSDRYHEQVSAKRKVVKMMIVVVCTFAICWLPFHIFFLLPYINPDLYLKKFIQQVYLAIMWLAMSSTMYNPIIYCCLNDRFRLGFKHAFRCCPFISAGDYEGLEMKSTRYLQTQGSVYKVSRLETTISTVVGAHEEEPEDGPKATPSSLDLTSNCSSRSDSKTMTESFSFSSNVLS

| Structure (SMILES) | IC50 |
| --- | --- |
| COc1ccccc1COC(=O)[C@H](Cc1c[nH]c2ccccc12)NC(=O)OC(C)(C)C | 280 nM |
| N[C@@H](Cc1c[nH]c2ccccc12)C(=O)OCc1ccccc1 | > 10000 nM |
| Cc1cc(C)cc(COC(=O)[C@H](Cc2c[nH]c3ccccc23)[N+](C)(C)C)c1 | 125 nM |
| CC(=O)N[C@@H](Cc1c[nH]c2ccccc12)C(=O)OCc1cc(C)cc(C)c1 [L-708568] | 67 nM |
| CC(C)(C)OC(=O)N[C@@H](Cc1c[nH]c2ccccc12)C(=O)OCc1ccccc1 | 413 nM |
| Cc1cc(C)cc(COC(=O)[C@@H](N)Cc2c[nH]c3ccccc23)c1 | 1530 nM |
| Cc1cc(C)cc(COC(=O)[C@H](Cc2c[nH]c3ccccc23)N(C)C)c1 | 553 nM |
